# Experimental data reported in ChEMBL document CHEMBL1143039, “Further modification on phenyl acetic acid based quinolines as liver X receptor modulators” (Bioorg Med Chem, 2007).
# Columns and labels:
# [1] = molecular target: T1, Oxysterols receptor LXR-beta (Homo sapiens, UniProt P55055); test: biochemical
# T1 sequence (P55055 whole entry): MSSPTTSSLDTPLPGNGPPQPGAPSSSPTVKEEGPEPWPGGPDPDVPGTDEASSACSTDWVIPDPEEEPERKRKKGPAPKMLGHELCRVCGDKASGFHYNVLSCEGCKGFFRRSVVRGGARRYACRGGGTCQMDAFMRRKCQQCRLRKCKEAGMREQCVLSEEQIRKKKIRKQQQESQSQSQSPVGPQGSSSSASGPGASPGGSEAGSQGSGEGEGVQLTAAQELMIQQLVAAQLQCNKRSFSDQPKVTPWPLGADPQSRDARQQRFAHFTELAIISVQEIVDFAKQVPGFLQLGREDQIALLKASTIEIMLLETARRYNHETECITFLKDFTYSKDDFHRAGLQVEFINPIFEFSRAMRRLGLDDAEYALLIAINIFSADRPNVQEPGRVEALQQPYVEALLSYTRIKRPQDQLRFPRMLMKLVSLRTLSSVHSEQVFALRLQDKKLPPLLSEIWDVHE
# Description: Displacement of [3H]T0901317 from human recombinant LXRbeta expressed in CHO cells
# [2] = molecular target: T2, Oxysterols receptor LXR-alpha (Homo sapiens, UniProt Q13133); test: biochemical
# T2 sequence (Q13133 whole entry): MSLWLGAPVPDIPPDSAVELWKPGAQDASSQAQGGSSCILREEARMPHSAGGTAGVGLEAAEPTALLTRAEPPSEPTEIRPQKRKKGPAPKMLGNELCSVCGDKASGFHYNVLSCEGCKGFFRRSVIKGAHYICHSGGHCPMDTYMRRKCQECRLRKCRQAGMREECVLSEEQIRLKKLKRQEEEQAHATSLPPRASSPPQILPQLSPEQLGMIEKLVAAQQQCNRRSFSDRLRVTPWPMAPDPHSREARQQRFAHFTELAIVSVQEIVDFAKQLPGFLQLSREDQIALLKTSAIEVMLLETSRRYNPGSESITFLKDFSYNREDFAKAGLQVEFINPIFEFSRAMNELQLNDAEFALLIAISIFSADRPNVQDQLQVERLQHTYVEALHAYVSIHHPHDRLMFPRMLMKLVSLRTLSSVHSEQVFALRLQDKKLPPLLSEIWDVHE
# Description: Displacement of [3H]T-0901317 from human recombinant LXRalpha expressed in CHO cells
# THP-1 [3] = test: Increase in ABCA1 gene expression in THP1 cells; type: functional, cell-based; settings: Homo sapiens
# Huh-7 [4] = test: Increase in SREBP1c gene expression in Huh7 cells; type: functional, cell-based; settings: Homo sapiens
# [5] = molecular target: T1, Oxysterols receptor LXR-beta; test: Agonist activity at human recombinant LXRbeta expressed in Huh7 cells by GAL4 transactivation assay; type: functional, cell-based, Huh-7
# [6] = molecular target: T2, Oxysterols receptor LXR-alpha; test: Agonist activity at human recombinant LXRalpha expressed in Huh7 cells by GAL4 transactivation assay; type: functional, cell-based, Huh-7
# [7] = molecular target: T3, Oxysterols receptor LXR-beta (Homo sapiens) (UniProt P55055); test: Agonist activity at human recombinant LXRbeta expressed in Huh7 cells by GAL4 transactivation assay relative to TO901317; type: functional, cell-based; settings: Huh-7
# T3 sequence (whole entry): T1 sequence (P55055 whole entry)
# [8] = molecular target: T4, Oxysterols receptor LXR-alpha (Homo sapiens) (UniProt Q13133); test: Agonist activity at human recombinant LXRalpha expressed in Huh7 cells by GAL4 transactivation assay relative to TO901317; type: functional, cell-based; settings: Huh-7
# T4 sequence (whole entry): T2 sequence (Q13133 whole entry)
# [9] = molecular target: T5, Peroxisome proliferator-activated receptor alpha (Homo sapiens, UniProt Q07869); test: Agonist activity at human recombinant PPARalpha by GAL4 transactivation assay; type: functional
# T5 sequence (Q07869 whole entry): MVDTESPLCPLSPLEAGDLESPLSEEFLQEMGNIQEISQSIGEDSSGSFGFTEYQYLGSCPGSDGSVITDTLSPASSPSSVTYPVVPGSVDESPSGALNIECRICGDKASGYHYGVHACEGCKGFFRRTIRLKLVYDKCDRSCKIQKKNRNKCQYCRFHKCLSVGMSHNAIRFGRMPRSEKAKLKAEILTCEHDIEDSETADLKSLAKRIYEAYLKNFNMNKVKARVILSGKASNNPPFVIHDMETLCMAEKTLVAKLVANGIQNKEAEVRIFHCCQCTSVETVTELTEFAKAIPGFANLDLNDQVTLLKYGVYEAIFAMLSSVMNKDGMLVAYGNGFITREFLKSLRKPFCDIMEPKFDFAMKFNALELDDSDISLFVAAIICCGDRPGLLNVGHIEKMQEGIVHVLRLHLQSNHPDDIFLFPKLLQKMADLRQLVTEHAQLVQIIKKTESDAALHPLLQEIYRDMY
# [10] = molecular target: T6, Peroxisome proliferator-activated receptor alpha (Homo sapiens) (UniProt Q07869); test: Agonist activity at human recombinant PPARalpha by GAL4 transactivation assay relative to WY-14643; type: functional
# T6 sequence (whole entry): T5 sequence (Q07869 whole entry)
# [11] = molecular target: T7, Peroxisome proliferator-activated receptor gamma (Homo sapiens, UniProt P37231); test: Agonist activity at human recombinant PPARgamma by GAL4 transactivation assay; type: functional
# T7 sequence (P37231 whole entry): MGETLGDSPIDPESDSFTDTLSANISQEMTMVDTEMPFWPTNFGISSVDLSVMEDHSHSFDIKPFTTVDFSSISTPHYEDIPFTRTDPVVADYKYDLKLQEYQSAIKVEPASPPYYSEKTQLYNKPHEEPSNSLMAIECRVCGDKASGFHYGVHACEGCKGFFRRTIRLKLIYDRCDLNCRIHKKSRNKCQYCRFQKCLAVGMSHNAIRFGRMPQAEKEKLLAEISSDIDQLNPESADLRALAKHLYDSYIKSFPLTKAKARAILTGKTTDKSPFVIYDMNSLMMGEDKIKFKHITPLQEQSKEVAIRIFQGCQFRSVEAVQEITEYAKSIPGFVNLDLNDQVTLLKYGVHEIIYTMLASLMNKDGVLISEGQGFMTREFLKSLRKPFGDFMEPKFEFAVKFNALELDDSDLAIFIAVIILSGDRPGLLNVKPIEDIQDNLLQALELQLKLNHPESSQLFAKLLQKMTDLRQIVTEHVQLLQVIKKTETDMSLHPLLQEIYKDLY
# [12] = molecular target: T8, Peroxisome proliferator-activated receptor gamma (Homo sapiens) (UniProt P37231); test: Agonist activity at human recombinant PPARgamma by GAL4 transactivation assay relative to rosiglitazone; type: functional
# T8 sequence (whole entry): T7 sequence (P37231 whole entry)
# [13] = molecular target: T9, Peroxisome proliferator-activated receptor delta (Homo sapiens, UniProt Q03181); test: Agonist activity at human recombinant PPARdelta by GAL4 transactivation assay; type: functional
# T9 sequence (Q03181 whole entry): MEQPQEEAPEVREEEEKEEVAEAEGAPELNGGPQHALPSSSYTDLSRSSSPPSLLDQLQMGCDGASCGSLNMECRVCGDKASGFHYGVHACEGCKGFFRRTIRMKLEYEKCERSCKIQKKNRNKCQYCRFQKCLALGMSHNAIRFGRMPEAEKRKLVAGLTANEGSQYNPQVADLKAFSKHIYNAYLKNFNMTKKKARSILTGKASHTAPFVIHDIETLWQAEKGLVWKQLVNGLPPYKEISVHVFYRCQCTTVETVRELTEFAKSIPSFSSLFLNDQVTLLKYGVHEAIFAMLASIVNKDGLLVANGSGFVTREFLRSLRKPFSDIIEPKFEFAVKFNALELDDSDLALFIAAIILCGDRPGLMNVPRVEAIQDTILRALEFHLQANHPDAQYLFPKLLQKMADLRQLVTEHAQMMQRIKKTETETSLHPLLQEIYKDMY
# THP-1 [14] = test: Increase in ABCA1 gene expression in THP1 cells relative to TO901317; type: functional, Homo sapiens
# Huh-7 [15] = test: Increase in SREBP1c gene expression in Huh7 cells relative to TO901317; type: functional, Homo sapiens
# [16] = Half life in C57BL/6 mouse at 1 mg/kg, iv; type: ADME, organism-based; set-up: dose 1 mg/kg, route intravenous; settings: in vivo
# [17] = Clearance in C57BL/6 mouse at 1 mg/kg, iv; type: ADME, organism-based; set-up: dose 1 mg/kg, route intravenous; settings: in vivo
# [18] = Volume of distribution in C57BL/6 mouse at 1 mg/kg, iv; type: ADME, organism-based; set-up: dose 1 mg/kg, route intravenous; settings: in vivo, read-out: Vss
# [19] = Half life in C57BL/6 mouse at 10 mg/kg, po; type: ADME, organism-based; set-up: dose 10 mg/kg, route oral; settings: in vivo
# [20] = Cmax in C57BL/6 mouse at 10 mg/kg, po; type: ADME, organism-based; set-up: dose 10 mg/kg, route oral; settings: in vivo
# [21] = Tmax in C57BL/6 mouse at 10 mg/kg, po; type: ADME, organism-based; set-up: dose 10 mg/kg, route oral; settings: in vivo
# [22] = AUC (infinity) in C57BL/6 mouse at 10 mg/kg, po; type: ADME, organism-based; set-up: time infinity, dose 10 mg/kg, route oral; settings: plasma
# [23] = Bioavailability in C57BL/6 mouse at 10 mg/kg, po; type: ADME, organism-based; settings: in vivo
# Mus musculus [24] = test: Reduction in aortic arch lesion area in C57BL/6 ApoE knockout mouse at 10 mg/kg, po for 12 weeks; type: functional, Pharyngeal arch artery
# Mus musculus [25] = test: Reduction of aortic arch lesion in C57BL/6 ApoE knockout mouse at 10 mg/kg, po for 12 weeks; type: functional, Pharyngeal arch artery; set-up: scale not given: the % may be the effect or the level left
# Mus musculus [26] = test: Increase in plasma triglyceride level in C57BL/6 ApoE knockout mouse at 10 mg/kg, po for 12 weeks; type: functional
# [27] = Stability in mouse liver microsomes; type: ADME, Microsome
# Liver microsomes = test: Stability in human liver microsomes; type: ADME, Microsome
# [28] = molecular target: T1, Oxysterols receptor LXR-beta
# Description: Agonist activity at human recombinant LXRbeta expressed in CHO cells
SMILES,IC50 [1] [nM],IC50 [2] [nM],EC50 (THP-1 [3]) [nM],EC50 (Huh-7 [4]) [nM],EC50 [5] [nM],EC50 [6] [nM],Activity [7] [%],Activity [8] [%],EC50 [9] [nM],Activity [10] [%],EC50 [11] [nM],Activity [12] [%],EC50 [13] [nM],Activity (THP-1 [14]) [%],Activity (Huh-7 [15]) [%],half-life [16] [h],clearance [17] [mL/min/kg],aortic arch lesion area (Mus musculus [24]) [%],Activity (Mus musculus [25]) [%],Activity (Mus musculus [26]) [mg/dL],further results
O=C(O)Cc1cccc(OCCCN(Cc2cccc(C(F)(F)F)c2Cl)CC(c2ccccc2)c2ccccc2)c1,,,,,,,,,,,,,,,,,,1.99,79,2.95,
O=C(O)Cc1ccc(CNc2cccc(-c3c(Cc4ccccc4)cnc4c(Cl)cccc34)c2)cc1,1.4,5,81,75,54,121,67,89,2050,12,506,50.6,631,162,137,1.8,37,4.47,53,64.56,Vd [18]: 1.8 L/kg; half-life [19]: 1.2 h; Cmax [20]: 2500 ng/mL; Tmax [21]: 0.25 h; AUC(0-inf) [22]: 2580 ng·h/mL; bioavailability [23]: 57%; Stability [27]: Stable; Stability (Liver microsomes): Stable; EC50 [28]: 23 nM

# The next lines start with results.
IC50 [1] [nM],IC50 [2] [nM],SMILES,EC50 (THP-1 [3]) [nM],EC50 (Huh-7 [4]) [nM],EC50 [5] [nM],EC50 [6] [nM],Activity [7] [%],Activity [8] [%],EC50 [9] [nM],Activity [10] [%],EC50 [11] [nM],Activity [12] [%],EC50 [13] [nM],Activity (THP-1 [14]) [%],Activity (Huh-7 [15]) [%],half-life [16] [h],clearance [17] [mL/min/kg],aortic arch lesion area (Mus musculus [24]) [%],Activity (Mus musculus [25]) [%],Activity (Mus musculus [26]) [mg/dL],further results
> 10000,> 10000,O=C(O)/C=C/c1ccc(CNc2cccc(-c3c(C(=O)c4ccccc4)cnc4c(C(F)(F)F)cccc34)c2)cc1,,,,,,,,,,,,,,,,,,,
5,21,Cc1cccc2c(-c3cccc(NCc4ccc(CC(=O)O)cc4)c3)c(Cc3ccccc3)cnc12,438,51.4,267,467,75,101,1770,7.5,1030,46.6,1970,139,114,1.6,25,4.09,57,15.2,Vd [18]: 1.2 L/kg; half-life [19]: 1.2 h; Cmax [20]: 4190 ng/mL; Tmax [21]: 0.25 h; AUC(0-inf) [22]: 3580 ng·h/mL; bioavailability [23]: 53%; Stability [27]: Stable; Stability (Liver microsomes): Stable; EC50 [28]: 90 nM
> 10000,> 10000,NC(=O)c1cnc2c(C(F)(F)F)cccc2c1-c1cccc(NCc2ccc(CC(=O)O)cc2)c1,,,,,,,,,,,,,,,,,,,
